Results: ChEMBL document CHEMBL1150805, “New cytotoxic isomalabaricane triterpenes from the sponge Jaspis species” (J Nat Prod, 2001)

Legend:
MOLT-4 = assay: Antiproliferative activity against human MOLT4 cells; type: functional, cell-based
Malme-3M = assay: Antiproliferative activity against human MALME-3M cells; type: functional, cell-based

| Structure (SMILES) | IC50 (MOLT-4) [µg/mL] | IC50 (Malme-3M) [µg/mL] |
| --- | --- | --- |
| CC(=O)O[C@@H](CC=C(C)C)/C(C)=C/C=C/C(C)=C1\C(=O)C[C@H]2[C@@]3(C)CC[C@@H](O)[C@](C)(CO)[C@@H]3CC[C@]12C (mixture of isomers) | 4.11 | 0.23 |
| CC(=O)O[C@@H](CC=C(C)C)/C(C)=C/C=C/C(C)=C1\C(=O)C[C@H]2[C@@]3(C)CC[C@H](OC(C)=O)[C@](C)(CO)[C@@H]3CC[C@]12C (mixture of isomers) | 19.5 | 2.27 |
| CC(=O)O[C@@H](CC=C(C)C)/C(C)=C/C=C/C(C)=C1\C(=O)C[C@H]2[C@@]3(C)CC[C@@H](OC(C)=O)[C@](C)(CO)[C@@H]3CC[C@]12C (mixture of isomers) | 16.6 | 1.2 |
| CC(=O)O[C@H]1CC[C@@]2(C)[C@@H](CC[C@]3(C)/C(=C(C)/C=C/C=C(\C)[C@@H](O)CC=C(C)C)C(=O)C[C@@H]23)[C@@]1(C)CO (mixture of isomers) | 1.62 | 0.11 |
